Measured values taken from patent US11945862B2, “Compositions and methods for antibody production” (ImmunoGen, Inc., priority 2017, dated 2024).

What was measured:
[1] = tested on: CHO cells; test: Viability of CHO cells after 1 day treatment; conditions: 0.75 mM, control 98.9%
[2] = tested on: Humanized anti-folate receptor 1 (FOLR1) IgG1; test: Antibody disulfide reduction by damaged CHO cell supernatant (freeze-thaw), thiol per antibody by Ellman's assay; format: biochemical; conditions: for thiol/antibody ratio: about 2.5 hours, control 5.5; for thiol per antibody: 2.2 hours
Protocol: (§1) For all of the examples described below, cell damage was simulated by multiple freeze-thaw cycles of cells, by addition of RIPA buffer (50 mM Tris-HCl, pH 7.4, 1% NP-40, 0.5% sodium deoxycholate, 0.1% sodium dodecylsulfate), or by using microfluidizer. This damaged cell supernatant or lysate was then incubated with a buffered solution containing antibody with or without the anti-reduction agent being tested, following which the extent of the antibody-disulfide reduction was measured using Ellman's assay for thiol (P. W. Riddles, R. L. Blakeley, and B. Zerner, Methods Enzymol., 91, 49-60, 1983) or by non-reducing SDS protein LabChip analysis. The total thiol level present in the mixture of damaged cell supernatant/lysate was measured initially.
(§2) A simulated, damaged CHO cell suspension was prepared using 300 million CHO cells per ml phosphate buffered saline (PBS), which was subjected to three freeze-thaw cycles under vacuum, followed by pelleting of cell debris by centrifugation, and storage of the supernatant at −80° C.
The concentration of thiol in the suspension of damaged CHO cells was measured as 4 mM using DTNB ((5,5′-dithiobis(2-nitrobenzoic acid); Ellman's reagent). Humanized anti-folate receptor 1 (FOLR1) IgG1 (1 mg) was immobilized on 0.05 ml of Protein A bead (RepliGen) and then treated with pre-mixed 0.5 ml PBS and 0.1 ml damaged CHO cell supernatant. The concentration of thiol in this mixture was 0.67 mM.
The sample was rotated for about 2.2 hours at ambient temperature, following which the supernatant was removed and the beads were washed with PBS four times (1.5 ml each). The thiol content of the immobilized antibody on the beads was then analyzed by the addition of 0.6 ml of PBS containing 0.5 mM DTNB, rotation for about 10 minutes, centrifugation, and measurement of the absorbance of the supernatant at 412 nm.
Methylene blue was then tested at different concentrations to determine whether it could protect against disulfide bond reduction during the incubation of antibody with damaged CHO cell supernatant. FIG. 1 is a graph showing the results of immobilized 1 mg humanized IgG1 with pre-mixed 0.5 ml PBS and 0.1 ml damaged CHO cell supernatant in the presence of methylene blue, rotation for 2.2 hours at ambient temperature, and a similar thiol analysis of immobilized antibody as above. Unexpectedly, very low concentrations of methylene blue (0.025 and 0.05 mM) protected against the reduction of antibody disulfide bonds.
In a similar experiment, a sample containing 1 mg immobilized antibody was incubated with a mixture of damaged CHO cell supernatant and 0.05 mM methylene blue for 2.2 hours, followed by washing of beads as above, after which the antibody was eluted from Protein A bead using 100 mM acetic acid containing 150 mM NaCl, neutralized to pH 7 by addition of 1.25 M […] solution. Using an aliquot of the neutralized eluted antibody sample, the thiol per antibody was measured as 0.002 thiol per antibody using DTNB, thus indicating the protection against antibody disulfide reduction by methylene blue. […]

[3] = tested on: humanized N901 antibody; test: Antibody disulfide reduction by CHO cell lysate (RIPA buffer), thiol/antibody by Ellman's assay; format: biochemical; conditions: for thiol/antibody ratio: 3 hours, lysate thiol 2.1 mM, control 5.74
Protocol: as §1
The effect of 1,2-naphthoquinone-4-sulfonic acid (NQS) on antibody-disulfide reduction was studied by incubating 1,2-naphthoquinone-4-sulfonic acid at several concentrations with antibody and damaged CHO lysate. The damaged CHO cell lysate was generated by the addition of 0.5 ml RIPA buffer (50 mM Tris-HCl, pH 7.4, 1% NP-40, 0.5% sodium deoxycholate, 0.1% sodium dodecylsulfate) to 100 million CHO cells. The thiol concentration in CHO cell lysate was measured by Ellman's assay as 2.1 mM.
Each sample contained pre-mixed 0.5 ml RIPA buffer (50 mM Tris-HCl, pH 7.4, 1% NP-40, 0.5% sodium deoxycholate, 0.1% sodium dodecylsulfate) with 1 mg humanized N901 antibody, with or without 1,2-naphthoquinone-4-sulfonic acid (25 micromolar, or 50 micromolar, or 100 micromolar), which was added to a cell pellet of 100 million CHO cells, and the resuspended cells were incubated at ambient temperature for 30 minutes, following which the cell debris were pelleted by centrifugation (16,000 g, 5 min). The supernatant from each sample was added to 50 microliter immobilized-Protein A beads (RepliGen) and rotated at ambient temperature for 3 hours, after which the supernatant was removed and the beads washed with PBS.
(§3) The thiol content of the immobilized antibody was determined by the addition of 0.6 ml of PBS containing 0.5 mM DTNB (Ellman's reagent) to the beads, rotation for about 10 minutes, centrifugation, and absorbance measurement of supernatant at 412 nm.
The effect of anthraquinone-2-sulfonic acid (AQS) on antibody-disulfide reduction was studied during co-incubation of anthraquinone-2-sulfonic acid with antibody and damaged CHO lysate. Each sample contained pre-mixed 1 ml RIPA buffer (50 mM Tris-HCl, pH 7.4, 1% NP-40, 0.5% sodium deoxycholate, 0.1% sodium dodecylsulfate) with 1 mg humanized N901 antibody, with or without 0.2 mM anthraquinone-2-sulfonic acid (AQS), which was added to a cell pellet of 100 million CHO cells, and the resuspended cells were incubated at ambient temperature for 30 minutes, following which the cell debris were pelleted by centrifugation (16,000 g, 5 min). The thiol concentration in CHO cell lysate was 1 mM (Ellman's assay).
as §3, with “The supernatant from each sample was added to 50 microliter immobilized-Protein A beads (RepliGen) and rotated at ambient temperature for 3 hours, after which the supernatant was removed and the beads washed with PBS. The” for “The”
In another experiment, 1 mg huN901 antibody was incubated with CHO lysate, with or without 0.4 mM anthraquinone-2-sulfonic acid for 4 hours. The mixture was then analyzed for thiol/antibody as above.
The thiol concentration in CHO cell lysate was 1 mM (Ellman's assay).
The supernatant from each sample was added to 50 microliter immobilized-Protein A beads (RepliGen) and rotated at ambient temperature for 3 hours, after which the supernatant was removed and the beads washed with PBS. […]

[4] = tested on: Humanized FOLR1 IgG1 antibody; test: Antibody disulfide reduction by CHO cell lysate (RIPA buffer), thiol per antibody by Ellman's assay; format: biochemical; conditions: 5 mM agent, 100 mM phosphate buffer pH 7, 2 hours
Protocol: Lysates of CHO cells (˜60 million cells lysed in 0.6 ml RIPA buffer and clarified by centrifugation) were added to each of these mixtures. The pH values of all samples were adjusted to 7. […] The samples were incubated with 200 microliter immobilized-Protein A beads (RepliGen) and rotated at ambient temperature for 3 hours, after which the supernatant was removed and the beads washed with PBS. The thiol content of the immobilized antibody was determined by the addition of 0.2 ml of PBS containing 0.5 mM DTNB (Ellman's reagent) to the beads, rotation for about 10 minutes, centrifugation, and absorbance measurement of the supernatant at 412 nm.
The pH values of all samples were adjusted to 7. The samples were incubated with 200 microliter immobilized-Protein A beads (RepliGen) and rotated at ambient temperature for 3 hours, after which the supernatant was removed and the beads washed with PBS. The thiol content of the immobilized antibody was determined by the addition of 0.2 ml of PBS containing 0.5 mM DTNB (Ellman's reagent) to the beads, rotation for about 10 minutes, centrifugation, and absorbance measurement of the supernatant at 412 nm.
To test the effect of L-cystine bis(t-butyl ester) (CDBE) on protecting antibody disulfide bonds from reduction by CHO lysate, humanized FOLR1 IgG1 antibody (2 mg) was incubated with CHO lysate in RIPA buffer (0.6 ml lysate of 60 million CHO cells in 0.6 ml RIPA buffer, clarified by centrifugation) without or with 0.5 or 1 mM CDBE. The samples were rotated at ambient temperature with 200 microliter immobilized-Protein A beads (RepliGen) for 2 hours, after which the supernatant was removed and the beads washed with PBS. The thiol content of the immobilized antibody was determined by the addition of 0.2 ml of PBS containing 0.5 mM DTNB (Ellman's reagent) to the beads, centrifugation, and absorbance measurement of the supernatant at 412 nm.
The samples were rotated at ambient temperature with 200 microliter immobilized-Protein A beads (RepliGen) for 2 hours, after which the supernatant was removed and the beads washed with PBS. The thiol content of the immobilized antibody was determined by the addition of 0.2 ml of PBS containing 0.5 mM DTNB (Ellman's reagent) to the beads, centrifugation, and absorbance measurement of the supernatant at 412 nm.

[5] = tested on: Humanized N901 (Anti-CD56 IgG1); test: Antibody disulfide reduction by damaged CHO cell supernatant (freeze-thaw), thiol per antibody by Ellman's assay; format: biochemical; conditions: for thiol per antibody: about 1.5 hours, control 6.4; for thiol per antibody / protection toward antibody-disulfide reduction: total thiol 0.8 mM; for protection toward antibody-disulfide reduction: 0.2 and 0.1 mM agent; for thiol/antibody ratio: about 2.5 hours, total thiol 0.4 mM, control 1.99
Protocol: as §1, §2
Humanized N901 (Anti-CD56 IgG1; 1 mg) was immobilized on 0.05 ml of Protein A bead (RepliGen) and then treated with pre-mixed 0.4 ml PBS and 0.1 ml damaged CHO cell supernatant (described in Example 1) with or without the addition of coenzyme Q analogs. The concentration of thiol in these mixtures was 0.8 mM.
The samples were rotated for about 1.5 hours at ambient temperature, following which the supernatant was removed and the beads washed with PBS three times. The thiol content of the immobilized antibody on the beads was then analyzed by the addition of 0.6 ml of mixture of PBS and 0.5 mM DTNB, rotation for about 10 minutes, centrifugation, and measurement of the absorbance of the supernatant at 412 nm. The number of thiol residues per antibody molecule after incubation with damaged CHO cell supernatant (without any coenzyme Q analog) was measured as 6.4 thiol/antibody.
Humanized N901 IgG1 (1 mg) was immobilized on 0.05 ml of Protein A bead (RepliGen) and treated with pre-mixed 0.45 ml PBS and 0.05 ml damaged CHO cell supernatant with or without 0.1 mM and 0.2 mM disulfiram (also named as tetraethylthiuram disulfide; added using a stock solution of disulfiram in DMSO). The concentration of total thiol (derived from damaged cells) in this mixture was 0.4 mM.
The samples were rotated for about 2.5 hours at ambient temperature, then centrifuged to pellet beads, following which the supernatants were removed and the beads washed with PBS four times. The thiol content of the immobilized antibody on the beads was then analyzed by the addition of 0.6 ml PBS containing 0.5 mM DTNB to the beads, rotation for about 30 minutes, centrifugation, and measurement of the absorbance of the supernatant at 412 nm.

[6] = Redox potential of antibody solution with media additive over a range of DTT concentrations; format: physicochemical; conditions: 1 mM additive, DTT 0.34 μM to 170 μM, 37° C., 1 h
[7] = tested on: M9346A antibody; format: biochemical; conditions: 1 mM additive
Protocol: Antibody reduction was induced in a biological assay by adding cell lysate to purified monoclonal antibody. […]. Increasing amounts of CHO cell lysate were added to mimic different percentages of cell lysis, ranging from […]. Fresh NADPH was added to a concentration of 400 μM. The mixtures were incubated in a water bath at 37° C. for 1 h. Free thiols were alkylated by addition of 10% (v/v) of 50 mM N-ethyl-maleimide (NEM) solution. Samples were analyzed by non-reduced sodium dodecyl sulfate denaturing capillary electrophoresis (NR-CE-SDS).
To test the capacity for protection further, the stringency of the assay was increased. […].

With `O=C(O)CCCCC1CCSS1` (racemic) [lipoic acid, 1,2-dithiolane-3-pentanoic acid] the “viability of CHO cells” value [1] was 98.1%, the thiol/antibody ratio ([2]; 0.5 mM agent, total thiol 0.67 mM) was 1.88 and the thiol/antibody ratio ([2]; 2 mM agent, total thiol 0.67 mM) was 1.08.
With `CCOC(=O)[C@@H](N)CSSC[C@H](N)C(=O)OCC` [CDEE, L-cystine diethyl ester] the thiol/antibody ([3]; 0.75 mM agent, 4° C. overnight, control 2.29) was 1.02 thiol/antibody.
With `CC(=O)N[C@@H](CSSC[C@H](NC(C)=O)C(=O)O)C(=O)O` [Di-N-acetyl L-cystine] the “decrease in disulfide reduction compared to the control” value [4] was “about 64%” and the thiol per antibody ([4]; control 1.16) was “about 0.42 thiol per antibody”.
For `O=C1C=C(S(=O)(=O)O)c2ccccc2C1=O` [NQS, 1,2-naphthoquinone-4-sulfonic acid], the thiol/antibody ratio ([3]; 0.025 mM agent) was 3.4, the thiol/antibody ratio ([3]; 0.05 mM agent) was 2.2 and the thiol/antibody ratio ([3]; 0.1 mM agent) was 1.25.
Molecule `COC1=C(OC)C(=O)C(C)=CC1=O` [coenzyme Q0, 2,3-dimethoxy-5-methyl-p-benzoquinone] has a thiol per antibody ([5]; 0.1 mM agent) of 0.63 thiol per antibody and a thiol per antibody ([5]; 0.2 mM agent) of 0.34 thiol per antibody.
For `COC1=C(OC)C(=O)C(C/C=C(\C)CCC=C(C)C)=C(C)C1=O` [coenzyme Q2, 2,3-dimethoxy-5-methyl-6-geranyl-p-benzoquinone], the “protection toward antibody-disulfide reduction” value [5] was “decreased antibody disulfide-reduction”.
In the case of `COC1=C(OC)C(=O)C(C/C=C(\C)CC/C=C(\C)CC/C=C(\C)CC/C=C(\C)CC/C=C(\C)CC/C=C(\C)CC/C=C(\C)CC/C=C(\C)CC/C=C(\C)CCC=C(C)C)=C(C)C1=O` [coenzyme Q10, reference compound], the “protection toward antibody-disulfide reduction” value [5] is reported as “did not show significant protection”.
In the case of `N[C@@H](CS)C(=O)O` [cysteine, reference compound], the “modulation of redox potential” value [6] is reported as “constant redox potential at low concentrations of DTT, followed by a slow decrease at higher DTT concentrations” and the intact antibody ([7]; lysate mimicking 120% cell lysis, 400 μM NADPH, 37° C., 1 h, control 40%) is reported as ~70%.
In the case of `N[C@@H](CSSC[C@H](N)C(=O)O)C(=O)O` [cystine], the “modulation of redox potential” value [6] is reported as “step-wise modulation of redox potential”.
For `CCN(CC)C(=S)SSC(=S)N(CC)CC` [disulfiram, tetraethylthiuram disulfide, reference compound], the thiol/antibody ratio ([5]; 0.1 mM agent) was 0.14 and the thiol/antibody ratio ([5]; 0.2 mM agent) was 0.03.
For `CN(C)c1ccc2nc3ccc(N(C)C)cc3[s+]c2c1` [methylene blue, Methylene blue], the thiol per antibody ([2]; 0.025 mM agent, total thiol 0.67 mM, control 4.2) was 0.38 thiol per antibody, the thiol per antibody ([2]; 0.05 mM agent, antibody eluted from Protein A bead and neutralized) was 0.002 thiol per antibody and the thiol per antibody ([2]; 0.05 mM agent, total thiol 0.67 mM, control 4.2) was 0.33 thiol per antibody.
In the case of `O=S(=O)([O-])[O-].[Zn+2]` [zinc], the “protection at increased assay stringency” value ([7]; conditions where control without additive was 100% fragmented) is reported as “protective of disulfide reduction”.
oxidized glutathione [GSSG] gave a thiol/antibody ([3]; 2 mM GSSG alone, 2.5 hours, lysate thiol 1 mM, control 5.63) of 0.98 thiol/antibody.
